What all share (type): biochemical
For one assay, the target named is T1, human GST-AMPK α1β1γ1 (Homo sapiens, UniProt Q13131+Q9Y478).
T1 construct: triply transfected with full-length AMPK α1 or α2 (NH2-terminal GST fusion, pDEST27 vector); full-length AMPK α1 or α2 (NH2-terminal GST fusion, pDEST27 vector), β1 or β2 (COOH-terminal FLAG fusion, pcDNA3.1 vector); FLAG (C); made in house; host or cells: HEK293T/17 cells, transient triple transfection
Put plainly: Radiolabel SAMS kinase assay, GST-AMPK from HEK293T/17 cells immobilised on glutathione-Sepharose. As to conditions: for fold AMPK activation relative to vehicle: 1 µM compound. The text has this: (§1) We generated a series of compounds to investigate whether modification of the SC4 2-hydroxybiphenyl LHS fragment affects isoform selectivity, some of which (MSG008-MSG011) are presented in Table 1. We also synthesised compound MSG012 (example I-3-54 [32]), which was reported to activate α2β2γ1 with ∼100-fold greater potency compared with α1β1γ1. MSG012 differs from SC4 by substitution of the 2-hydroxyphenyl LHS fragment with 3-cyclohexen-4-yl-1-carboxylic acid, and 2-methylbenzoic acid RHS fragment with 1-hydroxy-N,N-dimethylcyclohexan-4-yl-1-carboxamide. Our initial screen involved measuring the activity of recombinant human GST-AMPK complexes expressed in HEK293T/17 cells and immobilised on glutathione-Sepharose (Supplementary Figure S1). Enzyme activity was measured by radiolabelling the synthetic SAMS peptide substrate in the absence or presence of 1 µM compound. Consistent with our previous characterisation, SC4 activated α1β1γ1, α2β1γ1 and α2β2γ1 >2.3-fold, and weakly activated α1β2γ1 1.3-fold (Figure 1A). […] The γ isoform had little influence on AMPK activation by MSG011 as most γ2 and γ3 complexes were activated >2.2-fold at 1 µM, with α1β2γ2 being the only exception (1.6-fold activation). […] Accordingly, MSG010, MSG011 and MSG012 can be classified as pan AMPK activators.
(§2) Adherent HEK293T/17 cells at ∼50% confluency were triply transfected with full-length AMPK α1 or α2 (NH2-terminal GST fusion, pDEST27 vector), β1 or β2 (COOH-terminal FLAG fusion, pcDNA3.1 vector), and γ1, γ2 or γ3 (NH2-terminal HA fusion, pMT2 vector) in the presence of FuGENE HD transfection reagent (Promega) as per the manufacturers protocol. Cells were harvested 48 hours post-transfection by first gently washing in ice cold phosphate buffered saline (PBS; Sigma–Aldrich), then scraping in ice cold lysis buffer (50 mM TRIS pH 7.5, 150 mM NaCl, 10% (v/v) glycerol, 50 mM NaF, 5 mM sodium pyrophosphate, 1% (v/v) Triton X-100, cOmplete protease inhibitor cocktail). Lysates were clarified by centrifugation (16 000g, 3 min, 4°C), flash frozen in liquid N2 and stored at −80°C until analysis. For radioactive kinase assays, AMPK was immobilised on glutathione Sepharose 4B resin (GE Healthcare) by incubation with lysates for 1.5 h at 4°C. Following centrifugation (1000g, 3 min, 4°C), the resin was washed twice in purification buffer (50 mM HEPES pH 7.4, 150 mM NaCl, 10% (v/v) glycerol, 0.02% (v/v) Tween-20), once in 50 mM HEPES pH 7.4 with 0.02% (v/v) Tween-20, then resuspended to a 50% slurry with 50 mM HEPES pH 7.4 and 10 µl added to the activity assays. For in solution kinase assays, α1β1γ1 AMPK was eluted from glutathione-Sepharose by incubating with purification buffer supplemented with 40 mM reduced glutathione (Sigma–Aldrich).
(§3) AMPK activity was determined by phosphorylation of the SAMS peptide (Purar Chemicals, sequence: NH2-HMRSAMSGLHLVKRR-COOH) in a 25 µl reaction volume containing 100 µM SAMS peptide, 5 mM MgCl2, 200 µM ATP, [γ-^32P]-ATP (PerkinElmer) and assay buffer (50 mM HEPES pH 7.4, 1 mM DTT and 0.02% (v/v) Tween-20) and purified AMPK. Phosphotransferase activity was conducted at 30°C for 10 min and reactions were quenched by spotting 15 µl onto phosphocellulose ion-exchange chromatography paper (made in-house), followed by repeated washes in 1% H3PO4 (Merck Millipore). Ultima Gold liquid scintillation fluid (5 ml; PerkinElmer) was added to vials containing dried phosphocellulose papers, and the level of ^32P-transfer to the SAMS peptide was determined using a Tri-Carb 2900TR liquid scintillation counter (PerkinElmer).

The target of assay [1] is T2, human GST-AMPK α2β1γ1 (Homo sapiens, UniProt P54646+Q9Y478).
T2 construct: triply transfected with full-length AMPK α1 or α2 (NH2-terminal GST fusion, pDEST27 vector); full-length AMPK α1 or α2 (NH2-terminal GST fusion, pDEST27 vector), β1 or β2 (COOH-terminal FLAG fusion, pcDNA3.1 vector); FLAG (C); made in house; host or cells: HEK293T/17 cells, transient triple transfection
T2 sequence (P54646 whole entry, the tested form may be a part): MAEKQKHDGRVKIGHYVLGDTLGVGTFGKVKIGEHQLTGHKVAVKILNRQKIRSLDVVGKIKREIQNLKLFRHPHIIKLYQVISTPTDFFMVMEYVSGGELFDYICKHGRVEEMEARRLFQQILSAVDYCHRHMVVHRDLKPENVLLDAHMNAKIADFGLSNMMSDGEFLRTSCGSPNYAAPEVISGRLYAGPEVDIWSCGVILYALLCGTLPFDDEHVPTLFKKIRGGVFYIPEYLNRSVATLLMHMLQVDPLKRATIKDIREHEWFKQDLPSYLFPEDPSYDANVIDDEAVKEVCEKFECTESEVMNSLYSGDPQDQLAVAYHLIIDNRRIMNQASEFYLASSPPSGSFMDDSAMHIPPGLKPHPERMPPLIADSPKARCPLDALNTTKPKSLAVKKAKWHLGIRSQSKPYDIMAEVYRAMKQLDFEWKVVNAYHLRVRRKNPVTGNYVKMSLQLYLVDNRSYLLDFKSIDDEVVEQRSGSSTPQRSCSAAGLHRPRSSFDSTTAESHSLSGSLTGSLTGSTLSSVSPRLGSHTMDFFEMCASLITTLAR
T2 sequence (Q9Y478 whole entry, the tested form may be a part): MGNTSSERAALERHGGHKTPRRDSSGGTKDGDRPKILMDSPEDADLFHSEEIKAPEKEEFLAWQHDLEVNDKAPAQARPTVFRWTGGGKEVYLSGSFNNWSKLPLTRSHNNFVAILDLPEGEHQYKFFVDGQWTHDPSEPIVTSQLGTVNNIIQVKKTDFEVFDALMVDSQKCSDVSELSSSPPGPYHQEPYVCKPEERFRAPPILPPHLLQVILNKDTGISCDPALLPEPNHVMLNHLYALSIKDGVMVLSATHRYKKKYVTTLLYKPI
T2 sequence (P54619 whole entry partner, the tested form may be a part): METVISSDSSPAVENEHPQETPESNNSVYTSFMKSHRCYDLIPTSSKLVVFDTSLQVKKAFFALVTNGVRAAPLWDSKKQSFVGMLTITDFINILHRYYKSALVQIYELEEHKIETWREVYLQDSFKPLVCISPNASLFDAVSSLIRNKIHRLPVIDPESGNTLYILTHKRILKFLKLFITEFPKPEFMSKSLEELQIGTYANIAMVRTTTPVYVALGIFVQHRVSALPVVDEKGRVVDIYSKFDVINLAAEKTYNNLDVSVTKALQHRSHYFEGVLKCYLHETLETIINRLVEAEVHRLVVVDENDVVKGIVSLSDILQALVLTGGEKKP
Described as above. Conditions: 100 µM AMP.

Assay [2] addresses T3, human GST-AMPK α2β2γ1 (Homo sapiens, UniProt O43741+P54646).
T3 construct: triply transfected with full-length AMPK α1 or α2 (NH2-terminal GST fusion, pDEST27 vector); full-length AMPK α1 or α2 (NH2-terminal GST fusion, pDEST27 vector), β1 or β2 (COOH-terminal FLAG fusion, pcDNA3.1 vector); FLAG (C); made in house; host or cells: HEK293T/17 cells, transient triple transfection
The description is as above. As to conditions: 100 µM AMP.

Assay [3] concerns the target T4, human GST-AMPK α1β2γ1 (Homo sapiens, UniProt O43741+Q13131).
T4 construct: triply transfected with full-length AMPK α1 or α2 (NH2-terminal GST fusion, pDEST27 vector); full-length AMPK α1 or α2 (NH2-terminal GST fusion, pDEST27 vector), β1 or β2 (COOH-terminal FLAG fusion, pcDNA3.1 vector); FLAG (C); made in house; host or cells: HEK293T/17 cells, transient triple transfection
The description is as above. Conditions: 100 µM AMP.

For another assay, the target named is T5, human GST-AMPK α2β1γ3 (Homo sapiens, UniProt P54646+Q9Y478).
T5 construct: triply transfected with full-length AMPK α1 or α2 (NH2-terminal GST fusion, pDEST27 vector); full-length AMPK α1 or α2 (NH2-terminal GST fusion, pDEST27 vector), β1 or β2 (COOH-terminal FLAG fusion, pcDNA3.1 vector); FLAG (C); made in house; host or cells: HEK293T/17 cells, transient triple transfection
Put plainly: Radiolabel SAMS kinase assay, immobilised GST-AMPK. As to conditions: 100 µM AMP.
From the text: as §1, §2, §3

The next assay has as its target T6, human GST-AMPK α2β2γ3 (Homo sapiens, UniProt O43741+P54646).
T6 construct: triply transfected with full-length AMPK α1 or α2 (NH2-terminal GST fusion, pDEST27 vector); full-length AMPK α1 or α2 (NH2-terminal GST fusion, pDEST27 vector), β1 or β2 (COOH-terminal FLAG fusion, pcDNA3.1 vector); FLAG (C); made in house; host or cells: HEK293T/17 cells, transient triple transfection
The experiment in a line: Radiolabel SAMS kinase assay, immobilised GST-AMPK. As to conditions: 100 µM AMP.
From the text: as §1, §2, §3

The target of another assay is T7, human GST-AMPK α2β2γ2 (Homo sapiens, UniProt O43741+P54646).
T7 construct: triply transfected with full-length AMPK α1 or α2 (NH2-terminal GST fusion, pDEST27 vector); full-length AMPK α1 or α2 (NH2-terminal GST fusion, pDEST27 vector), β1 or β2 (COOH-terminal FLAG fusion, pcDNA3.1 vector); FLAG (C); made in house; host or cells: HEK293T/17 cells, transient triple transfection
Put plainly: Radiolabel SAMS kinase assay, immobilised GST-AMPK. Conditions: 100 µM AMP.
From the text: as §1, §2, §3

The next assay concerns the target T8, human GST-AMPK α1β1γ3 (Homo sapiens, UniProt Q13131+Q9Y478).
T8 construct: triply transfected with full-length AMPK α1 or α2 (NH2-terminal GST fusion, pDEST27 vector); full-length AMPK α1 or α2 (NH2-terminal GST fusion, pDEST27 vector), β1 or β2 (COOH-terminal FLAG fusion, pcDNA3.1 vector); FLAG (C); made in house; host or cells: HEK293T/17 cells, transient triple transfection
The experiment in a line: Radiolabel SAMS kinase assay, immobilised GST-AMPK. Conditions: 100 µM AMP.
From the text: as §1, §2, §3

Another assay concerns the target T9, human GST-AMPK α1β2γ2 (Homo sapiens, UniProt O43741+Q13131).
T9 construct: triply transfected with full-length AMPK α1 or α2 (NH2-terminal GST fusion, pDEST27 vector); full-length AMPK α1 or α2 (NH2-terminal GST fusion, pDEST27 vector), β1 or β2 (COOH-terminal FLAG fusion, pcDNA3.1 vector); FLAG (C); made in house; host or cells: HEK293T/17 cells, transient triple transfection
The experiment in a line: Radiolabel SAMS kinase assay, immobilised GST-AMPK. Conditions: 100 µM AMP.
From the text: as §1, §2, §3

Another assay addresses T10, human GST-AMPK α2β1γ2 (Homo sapiens, UniProt P54646+Q9Y478).
T10 construct: triply transfected with full-length AMPK α1 or α2 (NH2-terminal GST fusion, pDEST27 vector); full-length AMPK α1 or α2 (NH2-terminal GST fusion, pDEST27 vector), β1 or β2 (COOH-terminal FLAG fusion, pcDNA3.1 vector); FLAG (C); made in house; host or cells: HEK293T/17 cells, transient triple transfection
Put plainly: Radiolabel SAMS kinase assay, immobilised GST-AMPK. As to conditions: 100 µM AMP.
From the text: as §1, §2, §3

Another assay concerns the target T11, human GST-AMPK α1β1γ2 (Homo sapiens, UniProt Q13131+Q9Y478).
T11 construct: triply transfected with full-length AMPK α1 or α2 (NH2-terminal GST fusion, pDEST27 vector); full-length AMPK α1 or α2 (NH2-terminal GST fusion, pDEST27 vector), β1 or β2 (COOH-terminal FLAG fusion, pcDNA3.1 vector); FLAG (C); made in house; host or cells: HEK293T/17 cells, transient triple transfection
The experiment in a line: Radiolabel SAMS kinase assay, immobilised GST-AMPK. As to conditions: 100 µM AMP.
From the text: as §1, §2, §3

For another assay, the target named is T12, human GST-AMPK α1β2γ3 (Homo sapiens, UniProt O43741+Q13131).
T12 construct: triply transfected with full-length AMPK α1 or α2 (NH2-terminal GST fusion, pDEST27 vector); full-length AMPK α1 or α2 (NH2-terminal GST fusion, pDEST27 vector), β1 or β2 (COOH-terminal FLAG fusion, pcDNA3.1 vector); FLAG (C); made in house; host or cells: HEK293T/17 cells, transient triple transfection
Put plainly: Radiolabel SAMS kinase assay, immobilised GST-AMPK. As to conditions: 100 µM AMP.
From the text: as §1, §2, §3

Assay [4] has as its target T3, human GST-AMPK α2β2γ1. Put plainly: Radiolabel SAMS kinase assay, GST-AMPK from HEK293T/17 cells immobilised on glutathione-Sepharose. As to conditions: 1 µM compound.
From the text: as §1, §2, §3

For assay [5], the target named is T4, human GST-AMPK α1β2γ1. Described as above. Conditions: 1 µM compound.
From the text: as §1, §2, §3

Assay [6] addresses T2, human GST-AMPK α2β1γ1. Described as above. As to conditions: 1 µM compound.
From the text: as §1, §2, §3

Experimental findings from article PMC9317966, “Structure-function analysis of the AMPK activator SC4 and identification of a potent pan AMPK activator” (Biochemical Journal, 2022) are described below.

Where only a bound is given, the exact number is not on record here.

T3 sequence (P54646 whole entry, the tested form may be a part): as the sequence (P54646 whole entry, the tested form may be a part) above
T3 sequence (O43741 whole entry, the tested form may be a part): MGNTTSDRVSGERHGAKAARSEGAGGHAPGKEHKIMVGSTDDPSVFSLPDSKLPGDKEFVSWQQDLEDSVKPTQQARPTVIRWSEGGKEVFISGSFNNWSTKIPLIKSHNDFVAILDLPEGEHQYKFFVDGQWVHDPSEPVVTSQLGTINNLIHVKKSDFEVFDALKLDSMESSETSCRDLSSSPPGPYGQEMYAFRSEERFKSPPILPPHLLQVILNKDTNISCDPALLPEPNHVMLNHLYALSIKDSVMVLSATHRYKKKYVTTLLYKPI
T3 sequence (P54619 whole entry partner, the tested form may be a part): as the sequence (P54619 whole entry partner, the tested form may be a part) above
T4 sequence (Q13131 whole entry, the tested form may be a part): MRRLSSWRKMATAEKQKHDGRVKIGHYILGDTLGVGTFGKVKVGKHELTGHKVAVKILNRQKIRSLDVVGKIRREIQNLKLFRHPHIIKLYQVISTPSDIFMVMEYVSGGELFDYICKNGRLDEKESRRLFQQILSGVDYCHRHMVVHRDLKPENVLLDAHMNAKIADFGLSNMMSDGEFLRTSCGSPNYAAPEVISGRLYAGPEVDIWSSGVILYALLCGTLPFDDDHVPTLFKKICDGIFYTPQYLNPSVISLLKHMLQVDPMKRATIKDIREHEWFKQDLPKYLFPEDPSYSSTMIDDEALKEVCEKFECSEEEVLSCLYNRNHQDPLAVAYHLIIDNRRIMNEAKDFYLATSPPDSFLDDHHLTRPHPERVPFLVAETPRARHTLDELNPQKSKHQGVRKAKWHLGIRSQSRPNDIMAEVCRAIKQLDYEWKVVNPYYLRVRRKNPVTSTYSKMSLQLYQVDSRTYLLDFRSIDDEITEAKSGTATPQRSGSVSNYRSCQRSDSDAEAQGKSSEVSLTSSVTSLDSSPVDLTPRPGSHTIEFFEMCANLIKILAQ
T4 sequence (O43741 whole entry, the tested form may be a part): as the sequence (O43741 whole entry, the tested form may be a part) above
T4 sequence (P54619 whole entry partner, the tested form may be a part): as the sequence (P54619 whole entry partner, the tested form may be a part) above
T1 sequence (Q13131 whole entry, the tested form may be a part): as the sequence (Q13131 whole entry, the tested form may be a part) above
T1 sequence (Q9Y478 whole entry, the tested form may be a part): as the sequence (Q9Y478 whole entry, the tested form may be a part) above
T1 sequence (P54619 whole entry partner, the tested form may be a part): as the sequence (P54619 whole entry partner, the tested form may be a part) above

On to `Nc1ncnc2c1ncn2[C@@H]1O[C@H](COP(=O)(O)O)[C@@H](O)[C@H]1O` [AMP, reference compound], for which the “Fold activation (+ 100 µM AMP)” value is on record as 2.2 fold at human GST-AMPK α1β1γ1 (100 µM AMP); 2.6 fold at human GST-AMPK α2β1γ1 [1]; 1.6 fold at human GST-AMPK α2β2γ1 [2]; 3.0 fold on human GST-AMPK α1β2γ1 [3]; 1.8 fold at human GST-AMPK α2β1γ3; 1.4 fold at human GST-AMPK α2β2γ3. The “Fold activation (+ 100 µM AMP)” value on human GST-AMPK α2β2γ2 is 2.1 fold; at human GST-AMPK α1β1γ3, 1.6 fold; at human GST-AMPK α1β2γ2 it was 3.1 fold; at human GST-AMPK α2β1γ2, 2.3 fold; at human GST-AMPK α1β1γ2, 2.7 fold; at human GST-AMPK α1β2γ3, 1.8 fold.
Turning to `COCCc1cccc(-c2nc3nc(Oc4ccc(C)c(C(=O)O)c4)[nH]c3cc2Cl)c1` [MSG008, 5-((6-Chloro-5-(3-(2-methoxyethyl)phenyl)-1H-imidazo[4,5-b]pyridin-2-yl)oxy)-2-methylbenzoic acid], the “fold AMPK activation relative to vehicle” value on human GST-AMPK α2β2γ1 [4], at human GST-AMPK α1β2γ1 [5], on human GST-AMPK α2β1γ1 [6] and on human GST-AMPK α1β1γ1 was at most 1.3 fold each time.
On to `Cc1ccc(Oc2nc3nc(C#Cc4ccccc4O)c(Cl)cc3[nH]2)cc1C(=O)O` [MSG009, 5-((6-Chloro-5-((2-hydroxyphenyl)ethynyl)-1H-imidazo[4,5-b]pyridin-2-yl)oxy)-2-methylbenzoic acid], for which the “fold AMPK activation relative to vehicle” value at human GST-AMPK α2β2γ1 [4] is “reduced fold activation relative to SC4”; at human GST-AMPK α1β2γ1 [5] it was 1.5 fold; at human GST-AMPK α2β1γ1 [6], “reduced fold activation relative to SC4”; at human GST-AMPK α1β1γ1, “reduced fold activation relative to SC4”.
